In patent US8410153B2, “Naphthalene isoxazoline invertebrate pest control agents” (E.I. du Pont de Nemours and Company, priority 2007, dated 2013):

How the values were obtained:
Type in all cases: in vivo
[1] = tested on: diamondback moth (Plutella xylostella); assay: Test A: control of diamondback moth on radish plant, foliar spray; details: sprayed at 50 ppm, held 6 days
Procedure, shortened: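 Radish plants 12–14 days old, pre-infested with about 50 neonate larvae, sprayed at 50 ppm in 10% acetone/water with 300 ppm X-77 surfactant; three replicates. After 6 days at 25° C and 70% RH, feeding damage was scored visually and mortality counted.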

[2] = tested on: fall armyworm (Spodoptera frugiperda); assay: Test B: control of fall armyworm on corn (maize) plant, foliar spray; details: sprayed at 50 ppm
Procedure, shortened: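 4-5-day-old corn plants pre-infested with 10-15 1-day-old larvae on insect diet, then sprayed with compound at 50 ppm in 10% acetone/90% water with 300 ppm surfactant, three replicates. Held 6 days at 25° C, 70% RH; feeding damage assessed visually and mortality rated.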

[3] = tested on: western flower thrips (Frankliniella occidentalis); assay: Test E: control of western flower thrips on Soleil bean plant, contact and/or systemic; details: held 6 days
Procedure, shortened: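 5–7-day-old Soleil bean plants were sprayed at 250 or 50 ppm in 10% acetone/90% water with 300 ppm X-77 surfactant, three replicates. After drying 1 h, 22–27 adult thrips were added per unit. Mortality and plant damage were rated after 6 days at 25 °C and 45–55% RH.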

Measured: levels of control efficacy (20% or less feeding damage or 80% or more mortality)

CSCC(C)(C)NC(=O)c1ccc(C2=NOC(c3cc(Cl)cc(Cl)c3)(C(F)(F)F)C2)c2ccccc12 (stereo not shown) [Compound 27]
very good to excellent: [1] | [2] | [3]; sprayed at 50 ppm | [3]; sprayed at 250 ppm

CSCCNC(=O)c1ccc(C2=NOC(c3cc(F)cc(C(F)(F)F)c3)(C(F)(F)F)C2)c2ccccc12 (racemic) [Compound 132]
very good to excellent: [1] | [2] | [3]; sprayed at 50 ppm | [3]; sprayed at 250 ppm

O=C(CNC(=O)c1ccc(C2=NOC(c3cc(Cl)cc(C(F)(F)F)c3)(C(F)(F)F)C2)c2ccccc12)NCC(F)(F)F (stereo not shown) [Compound 62]
very good to excellent: [1] | [2] | [3]; sprayed at 50 ppm | [3]; sprayed at 250 ppm

CC(C)NC(=O)C(C)NC(=O)c1ccc(C2=NOC(c3cc(Cl)cc(Cl)c3)(C(F)(F)F)C2)c2ccccc12 (mixture of isomers) [Compound 33]
very good to excellent: [1] | [2] | [3]; sprayed at 50 ppm | [3]; sprayed at 250 ppm

CC(C)CNC(=O)C(C)NC(=O)c1ccc(C2=NOC(c3cc(C(F)(F)F)cc(C(F)(F)F)c3)(C(F)(F)F)C2)c2ccccc12 (stereo not shown) [Compound 90]
very good to excellent: [1] | [2] | [3]; sprayed at 50 ppm
